Assay: Oxygen content of suspensions by glucose assay solution (glucose oxidase/peroxidase, absorbance at 540 nm) and Equation 1
Format: physicochemical
Conditions: 37° C., 1 AP
Procedure: To confirm the oxygen carrying capability of the single coated nanoemulsion particle AOCs, the amount of dissolved oxygen in water was measured. The linear dependence of the absorbance at 540 nm in response to the concentration of glucose was first confirmed at 37° C. in the presence of sufficient amount of oxygen, and then the limiting amount of oxygen concentration was estimated in the presence of sufficient amount of glucose. […] The DI water was added to make the total volume 1.41 μl and the absorbance determined at 540 nm. The absorbance was plotted against the molar concentration of dissolved oxygen assuming that the air at 1 AP and 37° C., water contains 215.6 μmol/L of O2. The experimentally determined oxygen content in the coated AOC suspension is a composite of oxygen content in water and in the perfluorocarbon. Quantitatively, CO2 total=CO2 PFC VPFC+CO2 water Vwater=CO2 PFC VPFC+CO2 water(1−VPFC) (Equation 1) where, CO2 total is the total oxygen concentration of the sample, and CO2 PFC and CO2 water are the concentrations of oxygen in PFC and water at a given partial pressure of oxygen and temperature, and similarly V's are the volume fractions of PFC and water. […] The reaction was allowed to proceed for 30 minutes at 37° C. and the absorption was measured at 540 nm in order to estimate the amount of oxygen present in the uncoated and coated products.

oxygen content, estimated CSAT: 3,640 μmol/L
Structure (SMILES): FC(F)(F)C(F)(F)C(F)(F)C(F)(F)C(F)(F)C(F)(F)C(F)(F)C(F)(F)Br [emulsified PFOB, perfluorooctylbromide]
